Among the data in ChEMBL document CHEMBL1127616, “Synthesis, structural characterization, and antitumor properties of a novel class of large-ring platinum(II) chelate complexes incorporating the cis-1,4-diaminocyclohexane ligand in a unique locked boat conformation” (J Med Chem, 1994) are ID50 values, retold here.

Format in all cases: functional, cell-based
Holding throughout (settings): Mus musculus

The test system of experiment [1] is L1210. The experiment is described as follows: Tested for in vitro growth inhibition against murine leukemia cell L1210PtR4.
The subject of experiment [2] is P388. In words: Tested for in vitro growth inhibition against murine leukemia cell P388S.
In experiment [3] the test system is L1210. The experiment is described as follows: Tested for in vitro growth inhibition against murine leukemia cell L1210DACH.
For experiment [4], the system named is L1210. In words: Tested for in vitro growth inhibition against murine leukemia cell L1210DDP5.
Experiment [5] has as its system L1210. In words: Tested for in vitro growth inhibition against murine leukemia cell L1210S.
The test system of experiment [6] is P388. In words: Tested for in vitro growth inhibition against murine leukemia cell P388Pt4.

With CI-973, the ID50 with L1210 [1] was 2.6 mg/L; in the experiment with P388 [2], 0.1 mg/L; with L1210 [3], 1.8 mg/L; with L1210 [4] it was 3.9 mg/L; in the experiment with L1210 [5], 0.76 mg/L; in the experiment on P388 [6], 1.62 mg/L.
For [Pt(1R,2R-dach)Cl2], the ID50 with L1210 [1] was 0.161 mg/L; in the experiment with P388 [2] it was 0.077 mg/L; in the experiment on L1210 [3], 4.57 mg/L; in the experiment with L1210 [4] it was 0.164 mg/L; in the experiment with L1210 [5] it was 0.059 mg/L; in the experiment with P388 [6] it was 0.83 mg/L.
